Test system: calcium/calmodulin (Ca/CAM)-independent cGMP PDE
Test: Phosphodiesterase activity: in vitro PDE inhibition, modified "batch" method of Thompson and Appleman
Assay type: biochemical, rabbit
Settings: selectivity between Ca/CAM-independent cGMP PDE and cGMP-inhibited cAMP PDE (cAMP IC50 / cGMP IC50)
Description: The calcium/calmodulin (Ca/CAM)-independent cGMP PDE and the cGMP-inhibited cAMP PDE enzymes are obtained from rabbit platelets whilst, of the four major PDE enzymes of the rat kidney, the Ca/CAM-dependent cGMP PDE (fraction I) is isolated.

SELECTIVITY RATIO | S[…] | Compound
>1,030 | – | CCCn1cnc2c(=O)[nH]c(-c3ccccc3OCC)nc21 [Example 1, 2-(2-Ethoxyphenyl)-9-n-propylpurin-6-one]
– | 12,500 | CCCn1cnc2c(=O)[nH]c(-c3cc(S(=O)(=O)N4CCN(C)CC4)ccc3OCC)nc21 [Example 3, 2-[2-Ethoxy-5-(4-methyl-1-piperazinylsulphonyl)phenyl]-9-n-propylpurin-6-one]
6,250 | – | CCCn1cnc2c(=O)[nH]c(-c3cc(S(=O)(=O)N4CCNCC4)ccc3OCC)nc21 [Example 2, 2-[2-Ethoxy-5-(1-piperazinylsulphonyl)phenyl]-9-n-propylpurin-6-one]
